pKi: −log10 of the molar value.
Each molecule was assayed against T1, Caspase-1 (Homo sapiens, UniProt P29466) (assay: Reversible inhibition of recombinant human IL-1 beta converting enzyme.).
T1 sequence (P29466 whole entry): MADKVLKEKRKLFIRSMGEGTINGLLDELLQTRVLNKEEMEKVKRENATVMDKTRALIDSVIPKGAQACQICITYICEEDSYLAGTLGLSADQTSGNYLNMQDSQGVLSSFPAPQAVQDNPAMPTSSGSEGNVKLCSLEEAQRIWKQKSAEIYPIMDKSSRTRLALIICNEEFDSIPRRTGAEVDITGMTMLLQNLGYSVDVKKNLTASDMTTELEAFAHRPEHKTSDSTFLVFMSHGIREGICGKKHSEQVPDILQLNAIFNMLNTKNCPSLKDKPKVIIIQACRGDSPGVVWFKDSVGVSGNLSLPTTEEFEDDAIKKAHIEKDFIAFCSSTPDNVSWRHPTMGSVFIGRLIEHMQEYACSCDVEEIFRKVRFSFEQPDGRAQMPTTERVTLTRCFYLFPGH

Row | Compound | pKi
1 | CCCC(C(=O)N[C@@H](CC(=O)O)C(=O)COc1ccccc1)n1c(-c2ccccc2)ccc(NC(=O)c2cccc3ccccc23)c1=O (some centres not stated) | 5.14
2 | O=C(O)C[C@H](NC(=O)C(c1ccccc1)n1cccc(NC(=O)c2ccc3ccccc3c2)c1=O)C(=O)COc1ccccc1 (some centres not stated) | 8.89
3 | CC(C)C(C(=O)N[C@@H](CC(=O)O)C(=O)COc1ccccc1)n1cccc(NC(=O)c2cccc3ccccc23)c1=O (some centres not stated) | 7.68
4 | CC(C)[C@H](NC(=O)c1ccc2ccccc2c1)C(=O)N[C@@H](C)C(=O)NC(CC(=O)O)C(=O)COc1ccccc1 (some centres not stated) | 9.82
5 | C=CCC(C(=O)N[C@@H](CC(=O)O)C(=O)COc1ccccc1)n1cccc(NC(=O)c2ccc3ccccc3c2)c1=O (some centres not stated) | 8.82
6 | O=C(O)C[C@H](NC(=O)C(c1ccccn1)n1cccc(NC(=O)c2ccc3ccccc3c2)c1=O)C(=O)COc1ccccc1 (some centres not stated) | 8.70
7 | CCC(C(=O)N[C@@H](CC(=O)O)C(=O)COc1ccccc1)n1cccc(NC(=O)c2ccc3ccccc3c2)c1=O (some centres not stated) | 8.85
8 | CC(C)[C@H](NC(=O)c1ccc2ccccc2c1)C(=O)N1CCCC[C@H]1C(=O)NC(CC(=O)O)C(=O)COc1ccccc1 (some centres not stated) | 9.82
9 | CCCC(C(=O)N[C@@H](CC(=O)O)C(=O)COc1ccccc1)n1cccc(NC(=O)c2cccc3ccccc23)c1=O (some centres not stated) | 8.74
10 | CCCCC(C(=O)N[C@@H](CC(=O)O)C(=O)COc1ccccc1)n1cccc(NC(=O)c2cccc3ccccc23)c1=O (some centres not stated) | 8.28
11 | CC(C(=O)N[C@@H](CC(=O)O)C(=O)COc1ccccc1)n1cccc(NC(=O)c2cccc3ccccc23)c1=O (some centres not stated) | 8.15
12 | O=C(O)C[C@H](NC(=O)C(c1ccccc1)n1cccc(NC(=O)c2cccc3ccccc23)c1=O)C(=O)COc1ccccc1 (some centres not stated) | 8.74
13 | CCC(C(=O)N[C@@H](CC(=O)O)C(=O)COc1ccccc1)n1cccc(NC(=O)c2cccc3ccccc23)c1=O (some centres not stated) | 8.66
14 | CC(C(=O)N[C@@H](CC(=O)O)C(=O)COc1ccccc1)n1cccc(NC(=O)c2ccc3ccccc3c2)c1=O (some centres not stated) | 7.85
15 | CC(=O)N[C@@H](Cc1ccc(O)cc1)C(=O)N[C@H](C(=O)N[C@@H](C)C(=O)N[C@@H](CC(=O)O)C(=O)COc1ccccc1)C(C)C | 8.96
16 | CC(C)[C@H](NC(=O)c1ccc2ccccc2c1)C(=O)N1CCC[C@H]1C(=O)NC(CC(=O)O)C(=O)COc1ccccc1 (some centres not stated) | 9.70
17 | COCC(C(=O)N[C@@H](CC(=O)O)C(=O)COc1ccccc1)n1cccc(NC(=O)c2ccc3ccccc3c2)c1=O (some centres not stated) | 8.15

Other lines, results leading:

Row | pKi | Compound
18 | 7.80 | CCCCc1ccc(NC(=O)c2cccc3ccccc23)c(=O)n1CC(=O)N[C@@H](CC(=O)O)C(=O)COc1ccccc1
19 | 7.41 | O=C(O)C[C@H](NC(=O)Cn1cccc(NC(=O)c2cccc3ccccc23)c1=O)C(=O)COc1ccccc1
20 | 7.02 | Cc1ccc(NC(=O)c2cccc3ccccc23)c(=O)n1CC(=O)N[C@@H](CC(=O)O)C(=O)COc1ccccc1
21 | 7.40 | CCc1ccc(NC(=O)c2cccc3ccccc23)c(=O)n1CC(=O)N[C@@H](CC(=O)O)C(=O)COc1ccccc1
22 | 6.23 | Cc1ccc(NC(=O)OCc2ccccc2)c(=O)n1CC(=O)N[C@@H](CC(=O)O)C(=O)COc1ccccc1
23 | 7.60 | O=C(O)C[C@H](NC(=O)Cn1c(-c2ccccc2)ccc(NC(=O)c2cccc3ccccc23)c1=O)C(=O)COc1ccccc1
24 | 8.00 | O=C(O)C[C@H](NC(=O)Cn1c(Cc2ccccc2)ccc(NC(=O)c2cccc3ccccc23)c1=O)C(=O)COc1ccccc1
25 | 7.35 | O=C(O)C[C@H](NC(=O)Cn1cccc(NC(=O)c2ccc3ccccc3c2)c1=O)C(=O)COc1ccccc1
26 | 6.28 | Cc1ccc(NC(=O)c2ccccc2)c(=O)n1CC(=O)N[C@@H](CC(=O)O)C(=O)COc1ccccc1
27 | 7.34 | CCCCc1ncc(NC(=O)c2cccc3ccccc23)c(=O)n1CC(=O)N[C@@H](CC(=O)O)C(=O)COc1ccccc1
28 | 7.17 | CCCc1ccc(NC(=O)c2cccc3ccccc23)c(=O)n1CC(=O)N[C@@H](CC(=O)O)C(=O)COc1ccccc1
29 | 6.80 | Cc1ccc(NC(=O)c2ccc3ccccc3c2)c(=O)n1CC(=O)N[C@@H](CC(=O)O)C(=O)COc1ccccc1
30 | 7.40 | CCCCCCc1ccc(NC(=O)c2cccc3ccccc23)c(=O)n1CC(=O)N[C@@H](CC(=O)O)C(=O)COc1ccccc1
31 | 5.66 | CCCC(C(=O)N[C@@H](CC(=O)O)C(=O)COc1ccccc1)n1c(C)ccc(NC(=O)c2ccc3ccccc3c2)c1=O (some centres not stated)
32 | 7.18 | O=C(O)C[C@H](NC(=O)Cn1c(-c2ccccc2)ncc(NC(=O)c2cccc3ccccc23)c1=O)C(=O)COc1ccccc1
